The text below walks through data of ChEMBL document CHEMBL4342421, “Current scenario of tetrazole hybrids for antibacterial activity” (Eur J Med Chem, 2019).

Assay [1] has as its system Candida albicans. Description: Antifungal activity against Candida albicans assessed as zone of inhibition at 50 ug/ml. It counts as functional. The settings on record: read-out: IZ.
Assay [2] deals with Escherichia coli. Description: Antimicrobial activity against Escherichia coli assessed as zone of inhibition at 50 ug/ml. Format: functional. The settings on record: read-out: IZ.
For assay [3], the system named is Pseudomonas aeruginosa. Description: Antimicrobial activity against Pseudomonas aeruginosa assessed as zone of inhibition at 50 ug/ml. Format: functional. The settings on record: read-out: IZ.
Another assay concerns Aspergillus fumigatus. Description: Antifungal activity against Aspergillus fumigatus assessed as zone of inhibition at 50 ug/ml. It counts as functional. As to conditions: read-out: IZ.
Assay [4] relates to Bacillus subtilis. As to the kind of experiment: Antimicrobial activity against Bacillus subtilis assessed as zone of inhibition at 50 ug/ml. Format: functional. The settings on record: read-out: IZ.
The test system of assay [5] is Staphylococcus aureus. Description: Antimicrobial activity against Staphylococcus aureus assessed as zone of inhibition at 50 ug/ml. Format: functional. As to conditions: read-out: IZ.
Assay [6] relates to Escherichia coli. As to the kind of experiment: Antimicrobial activity against Escherichia coli. It counts as functional.
Assay [7] concerns Candida albicans. As to the kind of experiment: Antifungal activity against Candida albicans. It counts as functional.
The subject of assay [8] is Staphylococcus aureus. Description: Antimicrobial activity against Staphylococcus aureus. It counts as functional.
For assay [9], the system named is Bacillus subtilis. Description: Antimicrobial activity against Bacillus subtilis. It counts as functional.
The test system of the next assay is Salmonella typhimurium. As to the kind of experiment: Antimicrobial activity against Salmonella typhimurium. Format: functional, Salmonella enterica subsp. enterica serovar Typhimurium. The settings on record: Salmonella enterica.
The next assay has as its system Bacillus cereus. Description: Antimicrobial activity against Bacillus cereus assessed as zone of inhibition at 250 ug/ml. Format: functional. The settings on record: read-out: IZ.
The test system of a further assay is Aspergillus niger. Description: Antifungal activity against Aspergillus niger assessed as zone of inhibition at 250 ug/ml. Format: functional. As to conditions: read-out: IZ.
In assay [10] the test system is Candida albicans. As to the kind of experiment: Antifungal activity against Candida albicans assessed as zone of inhibition at 250 ug/ml. The settings on record: read-out: IZ. Format: functional.
Assay [11] relates to Staphylococcus aureus. Description: Antimicrobial activity against Staphylococcus aureus assessed as zone of inhibition at 250 ug/ml. It counts as functional. As to conditions: read-out: IZ.
The subject of assay [12] is Escherichia coli. As to the kind of experiment: Antimicrobial activity against Escherichia coli assessed as zone of inhibition at 250 ug/ml. Format: functional. As to conditions: read-out: IZ.
Assay [13] relates to Pseudomonas aeruginosa. Description: Antimicrobial activity against Pseudomonas aeruginosa assessed as zone of inhibition at 250 ug/ml. It counts as functional. As to conditions: read-out: IZ.

Molecules are shown by their SMILES. In brackets after ≈: the same amount, converted by molar mass.

Regarding `c1ccc(-n2nnnc2-c2cccnc2)cc1`, the zone of inhibition at 50 µg/mL in the assay on Candida albicans [1], in the assay on Escherichia coli [2], with Pseudomonas aeruginosa [3], with Aspergillus fumigatus, in the assay on Bacillus subtilis [4] and with Staphylococcus aureus [5] was 10 to 22 mm in each case.
For the molecule `Cc1ccc(-n2nnnc2-c2cccnc2)cc1`, the zone of inhibition at 50 µg/mL with Candida albicans [1], with Escherichia coli [2], in the assay on Pseudomonas aeruginosa [3], in the assay with Aspergillus fumigatus, with Bacillus subtilis [4] and in the assay with Staphylococcus aureus [5] was 10 to 22 mm throughout.
Consider `COc1ccc(-n2nnnc2-c2cccnc2)cc1`, for which the zone of inhibition at 50 µg/mL in the assay with Candida albicans [1], in the assay with Escherichia coli [2], in the assay with Pseudomonas aeruginosa [3], in the assay with Aspergillus fumigatus, with Bacillus subtilis [4] and in the assay with Staphylococcus aureus [5] was 10 to 22 mm each time.
Regarding `c1ccc(-c2nnnn2-c2ccccn2)cc1`, the zone of inhibition at 50 µg/mL in the assay with Candida albicans [1], in the assay with Escherichia coli [2], in the assay with Pseudomonas aeruginosa [3], with Aspergillus fumigatus, in the assay on Bacillus subtilis [4] and with Staphylococcus aureus [5] was 10 to 24 mm in each case.
On to `Cc1ccc(-c2nnnn2-c2ccccn2)cc1`, for which the zone of inhibition at 50 µg/mL in the assay on Candida albicans [1], in the assay with Escherichia coli [2], with Pseudomonas aeruginosa [3], with Aspergillus fumigatus, in the assay on Bacillus subtilis [4] and in the assay on Staphylococcus aureus [5] was 10 to 24 mm throughout.
`O=[N+]([O-])c1ccc(-n2nnnc2-c2cccnc2)cc1`: the zone of inhibition at 50 µg/mL in the assay on Candida albicans [1], in the assay with Escherichia coli [2], in the assay on Pseudomonas aeruginosa [3], in the assay on Aspergillus fumigatus, in the assay on Bacillus subtilis [4] and in the assay on Staphylococcus aureus [5] was 10 to 22 mm each time.
Turning to `Clc1cccc(-n2nnnc2-c2cccnc2)c1Cl`, the zone of inhibition at 50 µg/mL with Candida albicans [1], in the assay on Escherichia coli [2], in the assay with Pseudomonas aeruginosa [3], in the assay on Aspergillus fumigatus, in the assay with Bacillus subtilis [4] and in the assay on Staphylococcus aureus [5] was 10 to 22 mm throughout.
For the molecule `CCCCCC(O)C(C(CCCCCCC(=O)OCCn1c([N+](=O)[O-])cnc1C)n1nnnc1C)n1nnnc1C` (configuration not stated), the MIC was 26 µg/mL (≈ 45.2 µM) against Escherichia coli [6]; 124 µg/mL (≈ 215 µM) against Candida albicans [7]; 72 µg/mL (≈ 125 µM) against Staphylococcus aureus [8]; 24 to 76 µg/mL (≈ 41.7 to 132 µM) in the assay with Bacillus subtilis [9]; 34 µg/mL (≈ 59.1 µM) with Salmonella typhimurium.
For `O=[N+]([O-])c1cc(-c2nnnn2-c2ccccn2)cc([N+](=O)[O-])c1`, the zone of inhibition at 50 µg/mL in the assay with Candida albicans [1], in the assay on Escherichia coli [2], with Pseudomonas aeruginosa [3], in the assay with Aspergillus fumigatus, in the assay on Bacillus subtilis [4] and with Staphylococcus aureus [5] was 10 to 24 mm throughout.
`Brc1ccc(-n2nnnc2-c2cccnc2)cc1`: the zone of inhibition at 50 µg/mL in the assay with Candida albicans [1], in the assay with Escherichia coli [2], in the assay with Pseudomonas aeruginosa [3], in the assay with Aspergillus fumigatus, with Bacillus subtilis [4] and with Staphylococcus aureus [5] was 10 to 22 mm each time.
Take `Clc1ccc(-n2nnnc2-c2cccnc2)cc1`: the zone of inhibition at 50 µg/mL with Candida albicans [1], in the assay on Escherichia coli [2], in the assay on Pseudomonas aeruginosa [3], in the assay with Aspergillus fumigatus, in the assay with Bacillus subtilis [4] and with Staphylococcus aureus [5] was 10 to 22 mm throughout.
`Clc1ccccc1-c1nnnn1-c1ccccn1`: the zone of inhibition at 50 µg/mL with Candida albicans [1], with Escherichia coli [2], in the assay with Pseudomonas aeruginosa [3], in the assay on Aspergillus fumigatus, with Bacillus subtilis [4] and with Staphylococcus aureus [5] was 10 to 24 mm in each case.
`O=[N+]([O-])c1ccccc1-n1nnnc1-c1cccnc1`: the zone of inhibition at 50 µg/mL in the assay on Candida albicans [1], with Escherichia coli [2], in the assay with Pseudomonas aeruginosa [3], in the assay with Aspergillus fumigatus, in the assay on Bacillus subtilis [4] and in the assay with Staphylococcus aureus [5] was 10 to 22 mm in each case.
In the case of `CC(=O)N1N=C(Cn2cc(-c3nn(-c4ccncc4)cc3-c3nnnn3-c3ccc(Cl)cc3)c3cc(Cl)ccc32)OC1(C)c1ccc(C(F)(F)F)cc1` (configuration not stated), the zone of inhibition at 250 µg/mL with Bacillus cereus, in the assay with Aspergillus niger, in the assay with Candida albicans [10], in the assay on Staphylococcus aureus [11], in the assay with Escherichia coli [12] and in the assay with Pseudomonas aeruginosa [13] was 8 to 20 mm in each case.
For `COc1ccc(-c2nnnn2-c2ccccn2)cc1`, the zone of inhibition at 50 µg/mL in the assay on Candida albicans [1], in the assay with Escherichia coli [2], with Pseudomonas aeruginosa [3], in the assay on Aspergillus fumigatus, in the assay with Bacillus subtilis [4] and in the assay on Staphylococcus aureus [5] was 16 to 24 mm throughout.
On to `CC(=O)N1N=C(Cn2cc(-c3nn(-c4ccncc4)cc3-c3nnnn3-c3ccc(Br)cc3)c3cc(Cl)ccc32)OC1(C)c1ccc(C(F)(F)F)cc1` (configuration not stated), for which the zone of inhibition at 250 µg/mL in the assay on Bacillus cereus, in the assay on Aspergillus niger, in the assay with Candida albicans [10], with Staphylococcus aureus [11], in the assay with Escherichia coli [12] and with Pseudomonas aeruginosa [13] was 8 to 20 mm in each case.
Turning to `Clc1ccc(-c2nnnn2-c2ccccn2)cc1`, the zone of inhibition at 50 µg/mL in the assay with Candida albicans [1], in the assay on Escherichia coli [2], in the assay on Pseudomonas aeruginosa [3], in the assay with Aspergillus fumigatus, with Bacillus subtilis [4] and in the assay on Staphylococcus aureus [5] was 10 to 24 mm throughout.
`Clc1ccccc1-n1nnnc1-c1cccnc1`: the zone of inhibition at 50 µg/mL in the assay on Candida albicans [1], in the assay with Escherichia coli [2], in the assay on Pseudomonas aeruginosa [3], in the assay on Aspergillus fumigatus, in the assay on Bacillus subtilis [4] and in the assay on Staphylococcus aureus [5] was 10 to 22 mm each time.
For the molecule `CC(=O)N1N=C(Cn2cc(-c3nn(-c4ccncc4)cc3-c3nnnn3-c3ccc(C(F)(F)F)cc3)c3cc(Cl)ccc32)OC1(C)c1ccc(C(F)(F)F)cc1` (configuration not stated), the zone of inhibition at 250 µg/mL with Bacillus cereus, in the assay on Aspergillus niger, in the assay with Candida albicans [10], in the assay on Staphylococcus aureus [11], in the assay with Escherichia coli [12] and in the assay with Pseudomonas aeruginosa [13] was 8 to 20 mm throughout.
Consider `CC(=O)N1N=C(Cn2cc(-c3nn(-c4ccncc4)cc3-c3nnnn3-c3ccc(C)cc3)c3cc(Cl)ccc32)OC1(C)c1ccc(C(F)(F)F)cc1` (configuration not stated), for which the zone of inhibition at 250 µg/mL in the assay with Bacillus cereus, in the assay with Aspergillus niger, in the assay with Candida albicans [10], with Staphylococcus aureus [11], in the assay with Escherichia coli [12] and in the assay with Pseudomonas aeruginosa [13] was 8 to 20 mm throughout.
For the molecule `Brc1cccc(-c2nnnn2-c2ccccn2)c1`, the zone of inhibition at 50 µg/mL in the assay with Candida albicans [1], in the assay with Escherichia coli [2], in the assay on Pseudomonas aeruginosa [3], in the assay with Aspergillus fumigatus, with Bacillus subtilis [4] and in the assay on Staphylococcus aureus [5] was 10 to 24 mm each time.
Take `COc1ccccc1-n1nnnc1-c1cccnc1`: the zone of inhibition at 50 µg/mL in the assay with Candida albicans [1], with Escherichia coli [2], in the assay with Pseudomonas aeruginosa [3], in the assay with Aspergillus fumigatus, in the assay with Bacillus subtilis [4] and in the assay with Staphylococcus aureus [5] was 10 to 22 mm each time.
For the molecule `CC(=O)N1N=C(Cn2cc(-c3nn(-c4ccncc4)cc3-c3nnnn3-c3ccc([N+](=O)[O-])cc3)c3cc(Cl)ccc32)OC1(C)c1ccc(C(F)(F)F)cc1` (configuration not stated), the zone of inhibition at 250 µg/mL in the assay on Bacillus cereus, in the assay on Aspergillus niger, in the assay on Candida albicans [10], with Staphylococcus aureus [11], in the assay with Escherichia coli [12] and with Pseudomonas aeruginosa [13] was 8 to 20 mm throughout.
In the case of `COc1ccc(-n2nnnc2-c2cn(-c3ccncc3)nc2-c2cn(CC3=NN(C(C)=O)C(C)(c4ccc(C(F)(F)F)cc4)O3)c3ccc(Cl)cc23)cc1` (configuration not stated), the zone of inhibition at 250 µg/mL with Bacillus cereus, in the assay with Aspergillus niger, with Candida albicans [10], with Staphylococcus aureus [11], with Escherichia coli [12] and in the assay with Pseudomonas aeruginosa [13] was 8 to 20 mm in each case.
As for `Clc1cccc(-c2nnnn2-c2ccccn2)c1Cl`, the zone of inhibition at 50 µg/mL with Candida albicans [1], in the assay on Escherichia coli [2], in the assay on Pseudomonas aeruginosa [3], in the assay on Aspergillus fumigatus, in the assay on Bacillus subtilis [4] and in the assay with Staphylococcus aureus [5] was 10 to 24 mm in each case.
On to `O=C(N[C@H](CO)[C@H](O)c1ccc([N+](=O)[O-])cc1)C(Cl)Cl` [CHLORAMPHENICOL], for which the MIC in the assay on Escherichia coli [6], with Bacillus subtilis [9] and against Salmonella typhimurium was 30 µg/mL (≈ 92.8 µM) each time.
